Laboratory results reported in US7160874B2, “Phenylalanine derivatives” (Ajinomoto Co., Inc., priority 1999, dated 2007).

Key:
integrin α4β1 = target: T1, integrin α4β1 (Homo sapiens, UniProt P05556+P13612); test: VCAM antagonist activity (VCAM-1/α4β1 binding assay); type: cell-based; settings: Jurkat cells binding to VCAM-1; read-out: VCAM antagonistic activity (IC50) α4β1
T1 construct: cell strain Jurkat (ATCC TIB-152) of human T cells, known to express integrin α4β1; host or cells: Jurkat (human T cell line)
T1 sequence (P05556 21-798, one chain of several): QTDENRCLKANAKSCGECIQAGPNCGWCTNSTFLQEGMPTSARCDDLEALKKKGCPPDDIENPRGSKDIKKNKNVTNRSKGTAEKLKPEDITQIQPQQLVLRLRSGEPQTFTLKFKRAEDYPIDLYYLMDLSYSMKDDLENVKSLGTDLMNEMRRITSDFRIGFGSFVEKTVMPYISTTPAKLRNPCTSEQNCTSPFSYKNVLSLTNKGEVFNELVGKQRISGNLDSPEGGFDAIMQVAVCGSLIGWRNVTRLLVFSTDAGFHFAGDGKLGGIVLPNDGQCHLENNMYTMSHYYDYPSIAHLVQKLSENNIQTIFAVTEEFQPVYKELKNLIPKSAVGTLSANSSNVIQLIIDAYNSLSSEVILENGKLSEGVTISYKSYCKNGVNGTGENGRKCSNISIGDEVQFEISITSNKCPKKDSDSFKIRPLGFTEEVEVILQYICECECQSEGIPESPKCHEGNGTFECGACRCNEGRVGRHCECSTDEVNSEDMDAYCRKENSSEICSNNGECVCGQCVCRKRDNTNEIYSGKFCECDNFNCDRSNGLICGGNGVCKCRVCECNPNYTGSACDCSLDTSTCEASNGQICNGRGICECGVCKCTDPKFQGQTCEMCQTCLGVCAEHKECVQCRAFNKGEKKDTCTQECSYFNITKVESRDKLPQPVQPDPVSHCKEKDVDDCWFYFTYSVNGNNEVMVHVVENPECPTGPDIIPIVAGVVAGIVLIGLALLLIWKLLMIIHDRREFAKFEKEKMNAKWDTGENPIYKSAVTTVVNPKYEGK
Procedure: (Test Example) VCAM Antagonist Activity (VCAM-1/α4β1 Binding Assay):
The capacity of a test substance antagonistic to the binding of cell strain Jurkat (ATCC TIB-152) of human T cells, known to express integrin α4β1, to VCAM-1 was determined.
(§1) 100 μl/well of a solution (500 ng/ml) of recombinant human VCAM-1 (R & D systems) solution diluted with buffer A (0.1 M NaHCO3, pH 9.6) was added to a micro titer plate having 96 wells (Nunc Maxisorp). After the incubation at 4° C. overnight, unbound VCAM-1 was removed by washing once with PBS. After completion of the washing, a buffer (buffer B) obtained by diluting Block Ace® (Dainippon Pharmaceutical Co., Ltd.) with PBS to 1/4 concentration was added in an amount of 150 μl/well. After the incubation at room temperature for 1 hour, buffer B was removed and the plate was washed with PBS once.
Jurkat cells were washed with Dulbecco modified Eagle medium (SIGMA, hereinafter referred to as “DMEM”) twice and then incubated in DMEM containing 10 μg/ml of Calcein-AM (Wako Pure Chemical Industries, Ltd.) at 37° C. in dark place for 30 minutes to label with fluorescence. The cells were again suspended in a binding buffer (20 mM HEPES, DMEM containing 0.1% BSA).
(§2) 50 μl of a test substance of various concentrations obtained by the dilution with the binding buffer was added to the plate. Immediately thereafter, 50 μl (final volume: 100 μl/well) of the fluorescent Jurkat cells (4×10^6 cells/ml) were added thereto, and they were incubated at room temperature for 30 minutes. After the shaking on a plate shaker (IKA MTS-4) at 800 rpm for 30 seconds, the solution was immediately removed to remove the unbound cells. The fluorescence quantity of the bound cells remaining in the wells was determined with a fluorescent plate reader (Wallac 1420 ARVO multi-label counter) (filter excitation wave length: 485 nm, emission wave length: 535 nm). The fluorescent strength thus obtained is proportional to the number of Jurkat cells bound to VCAM-1 and remaining on the plate. The binding rate of each test material in various concentrations was determined while the fluorescent strength of the test material-free well was determined to be 100%. The concentration IC50 for the 50% binding inhibition was calculated.
(§3) The activities were classified into group A wherein IC50 was 0.02 μmol/l or below, group B wherein IC50 was higher than 0.02 μmol/l and not above 0.1 μmol/l, group C wherein IC50 was higher than 0.1 μmol/l and not above 2 μmol/l, and group D wherein IC50 was higher than 2 μmol/l and not above 10 μmol/l.

integrin α4β7 = target: T2, integrin α4β7 (Homo sapiens, UniProt P13612+P26010); test: VCAM antagonistic activity (VCAM-1/α4β7 binding assay); type: cell-based; settings: RPMI-8866 cells binding to VCAM-1; read-out: VCAM antagonistic activity (IC50) α4β7
T2 construct: lymphoma cell strain RPMI-8866 of human B cells, known to express integrin α4β7; endogenous in cells; host or cells: RPMI-8866 (human B lymphoma cell line)
T2 sequence (P13612 34-1032): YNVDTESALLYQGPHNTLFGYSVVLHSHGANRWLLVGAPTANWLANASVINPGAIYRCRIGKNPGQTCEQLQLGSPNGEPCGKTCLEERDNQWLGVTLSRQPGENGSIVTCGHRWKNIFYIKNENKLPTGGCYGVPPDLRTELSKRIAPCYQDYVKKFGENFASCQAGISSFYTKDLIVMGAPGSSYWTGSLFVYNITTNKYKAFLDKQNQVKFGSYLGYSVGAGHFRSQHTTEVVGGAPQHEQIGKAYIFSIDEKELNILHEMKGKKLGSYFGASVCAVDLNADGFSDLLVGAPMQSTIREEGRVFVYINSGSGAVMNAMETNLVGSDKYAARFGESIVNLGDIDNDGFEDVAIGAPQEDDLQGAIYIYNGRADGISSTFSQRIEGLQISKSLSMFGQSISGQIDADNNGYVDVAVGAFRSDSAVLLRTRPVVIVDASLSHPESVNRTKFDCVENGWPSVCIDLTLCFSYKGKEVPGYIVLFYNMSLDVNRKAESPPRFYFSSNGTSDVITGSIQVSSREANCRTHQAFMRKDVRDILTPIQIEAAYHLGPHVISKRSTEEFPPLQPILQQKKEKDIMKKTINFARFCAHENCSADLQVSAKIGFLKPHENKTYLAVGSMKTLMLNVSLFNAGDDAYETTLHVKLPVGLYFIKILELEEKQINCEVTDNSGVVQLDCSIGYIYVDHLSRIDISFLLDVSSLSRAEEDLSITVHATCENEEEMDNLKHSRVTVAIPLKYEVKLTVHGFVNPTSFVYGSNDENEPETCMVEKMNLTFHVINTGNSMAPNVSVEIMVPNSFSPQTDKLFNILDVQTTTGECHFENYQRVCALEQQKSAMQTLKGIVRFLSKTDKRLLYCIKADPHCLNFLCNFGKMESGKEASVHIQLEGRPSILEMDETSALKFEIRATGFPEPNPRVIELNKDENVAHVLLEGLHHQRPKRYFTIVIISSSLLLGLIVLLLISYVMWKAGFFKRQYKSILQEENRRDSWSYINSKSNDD
T2 sequence (P26010 20-798): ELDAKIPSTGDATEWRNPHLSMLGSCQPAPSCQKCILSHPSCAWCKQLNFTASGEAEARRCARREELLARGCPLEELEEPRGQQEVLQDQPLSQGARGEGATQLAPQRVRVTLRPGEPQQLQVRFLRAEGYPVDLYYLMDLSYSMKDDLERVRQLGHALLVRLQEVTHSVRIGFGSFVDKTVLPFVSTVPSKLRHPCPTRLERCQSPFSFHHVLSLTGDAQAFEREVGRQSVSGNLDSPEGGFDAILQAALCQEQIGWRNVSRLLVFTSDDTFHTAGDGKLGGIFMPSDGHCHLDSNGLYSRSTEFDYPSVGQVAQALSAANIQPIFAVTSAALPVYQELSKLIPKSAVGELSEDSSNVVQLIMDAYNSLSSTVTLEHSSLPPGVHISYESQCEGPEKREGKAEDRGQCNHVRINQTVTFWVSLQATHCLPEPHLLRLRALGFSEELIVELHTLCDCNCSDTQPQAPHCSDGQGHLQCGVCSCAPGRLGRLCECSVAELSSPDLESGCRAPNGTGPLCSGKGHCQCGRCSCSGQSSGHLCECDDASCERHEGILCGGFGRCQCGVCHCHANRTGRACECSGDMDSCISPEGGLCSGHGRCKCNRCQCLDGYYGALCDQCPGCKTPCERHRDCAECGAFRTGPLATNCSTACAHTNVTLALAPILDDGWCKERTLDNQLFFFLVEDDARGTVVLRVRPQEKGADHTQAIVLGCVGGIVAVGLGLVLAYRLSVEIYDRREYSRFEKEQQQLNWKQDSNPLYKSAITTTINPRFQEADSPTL
Procedure: (Test Example) VCAM Antagonistic Activity (VCAM-1/α4β7 Binding Assay):
The capacity of a test substance antagonistic to the binding of lymphoma cell strain RPMI-8866 of human B cells, known to express integrin α4β7, to VCAM-1 was determined.
as §1
RPMI-8866 cells were incubated in Dulbecco modified Eagle medium containing 10 μg/ml of Calcein-AM (Wako Pure Chemical Industries, Ltd.) (SIGMA, hereinafter referred to as “DMEM”) at 37° C. for 30 minutes to label with fluorescence. The cells were again suspended in a binding buffer (20 mM HEPES, DMEM containing 0.1% BSA) containing 4 mM of MnCl2.
as §2, with “RPMI-8866” for “Jurkat”
as §3

IC50 (integrin α4β1)	IC50 (integrin α4β7)	SMILES
100 to 2000 nM	< 20 nM	CSc1ncc(Cl)c(C(=O)Nc2ccc(C[C@H](NC(=O)C3(C(=O)N(C)C)CC3)C(=O)O)cc2)n1 [Example 85, N-[1-N,N-dimethylaminocarbonylcyclopropane-1-ylcarbonyl]-4-({[5-chloro-2-(methylthio)pyrimidine-4-yl]carbonyl}-amino)-L-phenylalanine]
100 to 2000 nM	< 20 nM	CCC(CC)(C(=O)N[C@@H](Cc1ccc(OCc2c(Cl)cccc2Cl)cc1)C(=O)O)C(=O)N1CCC1 [Example 78]
2000 to 10000 nM	100 to 2000 nM	CN(C(=O)C1(C(=O)N[C@@H](Cc2ccc(OCc3c(Cl)cccc3Cl)cc2)C(=O)O)CC1)c1ccccc1 [Example 23]
100 to 2000 nM	20 to 100 nM	CCC(CC)(C(=O)N[C@@H](Cc1ccc(-n2c(=O)c3ccccc3n(CC=Cc3ccccc3)c2=O)cc1)C(=O)O)C(=O)N1CCCC1 [Example 101]
20 to 100 nM	< 20 nM	CCC(CC)(C(=O)NC(Cc1ccc(OCc2c(Cl)cccc2Cl)cc1)C(=O)O)C(=O)N1CC2CC1CN2C(C)=O (stereo not shown) [Example 466]
100 to 2000 nM	20 to 100 nM	CCC(CC)(C(=O)N[C@@H](Cc1ccc(OCc2c(Cl)cccc2Cl)cc1)C(=O)O)C(=O)N1CCC[C@H]1C(N)=O [Example 67]
100 to 2000 nM	20 to 100 nM	COc1cccc(OC)c1-c1ccc(C[C@H](NC(=O)C(C)(C)C(=O)N(C)C)C(=O)O)cc1 [Example 105, N-[3-(dimethylamino)-2,2-dimethyl-3-oxopropanoyl]-4-(2,6-dimethoxyphenyl)-L-phenylalanine]
100 to 2000 nM	20 to 100 nM	CCC(CC)(C(=O)N[C@@H](Cc1ccc(OCc2c(Cl)cccc2Cl)cc1)C(=O)O)C(=O)N(C)CCN(C)C [Example 40]
20 to 100 nM	< 20 nM	CCC(CC)(C(=O)N[C@@H](Cc1ccc(OCc2c(Cl)cccc2Cl)cc1)C(=O)O)C(=O)N1CCC[C@@H]1C(N)=O [Example 70]
20 to 100 nM	< 20 nM	CCC(CC)(C(=O)N[C@@H](Cc1ccc(OCc2c(Cl)cccc2Cl)cc1)C(=O)O)C(=O)N1CC[C@H](NC(C)=O)C1 [Example 55]
100 to 2000 nM	< 20 nM	CCC(CC)(C(=O)N[C@@H](Cc1ccc(OCc2c(Cl)cccc2Cl)cc1)C(=O)O)C(=O)N1C[C@@H](O)[C@@H](O)C1 [Example 81, N-(2-{[(cis-3,4-dihydroxypyrrolidine)-1-yl]carbonyl}-2-ethyl-butanoyl)-O-(2,6-dichlorobenzyl)-L-tyrosine]
100 to 2000 nM	20 to 100 nM	CN(C)C(=O)C1(C(=O)N[C@@H](Cc2ccc(NC(=O)c3c(Cl)cccc3Cl)cc2)C(=O)O)CC1 [Example 90, N-[1-(N,N-dimethylaminocarbonyl)-cyclopropane-1-ylcarbonyl]-4-{[2,6-dichlorophenylcarbonyl]amino}-L-phenylalanine]
20 to 100 nM	20 to 100 nM	CCC(CC)(C(=O)N[C@@H](Cc1ccc(NC(=O)c2cc(OC)ccc2Br)cc1)C(=O)O)C(=O)N1CCCC1 [Example 99]
20 to 100 nM	< 20 nM	CCC(CC)(C(=O)N[C@@H](Cc1ccc(NC(=O)c2nc(SC)ncc2Br)cc1)C(=O)O)C(=O)N1CCCC1 [Example 477]
100 to 2000 nM	100 to 2000 nM	CN(C)C(=O)C1(C(=O)N[C@@H](Cc2ccc(NC(=O)c3cc(Br)ccc3Br)cc2)C(=O)O)CC1 [Example 88]
100 to 2000 nM	< 20 nM	CCC(CC)(C(=O)N[C@@H](Cc1ccc(NC(=O)c2snnc2-c2ccccc2)cc1)C(=O)O)C(=O)N1CCCC1 [Example 93]
100 to 2000 nM	20 to 100 nM	CCC(CC)(C(=O)N[C@@H](Cc1ccc(OCc2c(Cl)cccc2Cl)cc1)C(=O)O)C(=O)N1CCN(C=O)CC1 [Example 45]

SMILES	IC50 (integrin α4β1)	IC50 (integrin α4β7)
CN(C)C(=O)C1(C(=O)N[C@@H](Cc2ccc(OCc3c(Cl)cccc3Cl)cc2)C(=O)O)CCC1 [Example 29]	100 to 2000 nM	100 to 2000 nM
CCC(CC)(C(=O)N[C@@H](Cc1ccc(OCc2c(Cl)cccc2Cl)cc1)C(=O)O)C(=O)N1CCC(C(N)=O)CC1 [Example 39]	100 to 2000 nM	20 to 100 nM
CCC(CC)(C(=O)NC(Cc1ccc(OCc2c(Cl)cccc2Cl)cc1)C(=O)O)C(=O)N1CCC(N)C1 (mixture of isomers) [Example 47]	100 to 2000 nM	< 20 nM
